# Source: PMC8480759, “Inhibitors of histone deacetylase 6 based on a novel 3-hydroxy-isoxazole zinc binding group” (Journal of Enzyme Inhibition and Medicinal Chemistry, 2021)
# Key:
# [1] = test system: HDAC6; design: method as in ChEMBL (accessed on May 29th, 2020); details: ChEMBL ligands most similar to compound 13; ref ChEMBL (accessed on May 29th, 2020); cited from earlier work
# [2] = Storage stability at solid state; format: physicochemical; details: room temperature and −20 °C
# Source text: In a recent study, we described the effect of different linker chemotypes on the potency and selectivity of a series of HDACi carrying a hydroxamate ZBG[6]. […] Being constituted by a small heteroaromatic ring with hydrogen bond acceptor and donor atoms, we hypothesised that the 3-hydroxy-isoxazole moiety could satisfy the pharmacophore requirements necessary for the coordination of the catalytic zinc ion of HDAC6. Therefore, in this work we investigated a series of 3-hydroxy-isoxazole derivatives bearing different aromatic or heteroaromatic linkers and various cap groups.
# [3] = molecular target: T1, HDAC6 (Homo sapiens, UniProt Q9UBN7); assay: In vitro HDAC6 fluorogenic enzymatic assay; format: biochemical; design: purchased BPS Bioscience #50076 (Fluorogenic Assay Kit); details: for IC50: recombinant human HDAC6, dose-response 300 µM to 135 nM; for HDAC6 activity at the highest tested concentration: 300 µM, remaining enzyme activity, called inactive
# T1 sequence (Q9UBN7 1-1215): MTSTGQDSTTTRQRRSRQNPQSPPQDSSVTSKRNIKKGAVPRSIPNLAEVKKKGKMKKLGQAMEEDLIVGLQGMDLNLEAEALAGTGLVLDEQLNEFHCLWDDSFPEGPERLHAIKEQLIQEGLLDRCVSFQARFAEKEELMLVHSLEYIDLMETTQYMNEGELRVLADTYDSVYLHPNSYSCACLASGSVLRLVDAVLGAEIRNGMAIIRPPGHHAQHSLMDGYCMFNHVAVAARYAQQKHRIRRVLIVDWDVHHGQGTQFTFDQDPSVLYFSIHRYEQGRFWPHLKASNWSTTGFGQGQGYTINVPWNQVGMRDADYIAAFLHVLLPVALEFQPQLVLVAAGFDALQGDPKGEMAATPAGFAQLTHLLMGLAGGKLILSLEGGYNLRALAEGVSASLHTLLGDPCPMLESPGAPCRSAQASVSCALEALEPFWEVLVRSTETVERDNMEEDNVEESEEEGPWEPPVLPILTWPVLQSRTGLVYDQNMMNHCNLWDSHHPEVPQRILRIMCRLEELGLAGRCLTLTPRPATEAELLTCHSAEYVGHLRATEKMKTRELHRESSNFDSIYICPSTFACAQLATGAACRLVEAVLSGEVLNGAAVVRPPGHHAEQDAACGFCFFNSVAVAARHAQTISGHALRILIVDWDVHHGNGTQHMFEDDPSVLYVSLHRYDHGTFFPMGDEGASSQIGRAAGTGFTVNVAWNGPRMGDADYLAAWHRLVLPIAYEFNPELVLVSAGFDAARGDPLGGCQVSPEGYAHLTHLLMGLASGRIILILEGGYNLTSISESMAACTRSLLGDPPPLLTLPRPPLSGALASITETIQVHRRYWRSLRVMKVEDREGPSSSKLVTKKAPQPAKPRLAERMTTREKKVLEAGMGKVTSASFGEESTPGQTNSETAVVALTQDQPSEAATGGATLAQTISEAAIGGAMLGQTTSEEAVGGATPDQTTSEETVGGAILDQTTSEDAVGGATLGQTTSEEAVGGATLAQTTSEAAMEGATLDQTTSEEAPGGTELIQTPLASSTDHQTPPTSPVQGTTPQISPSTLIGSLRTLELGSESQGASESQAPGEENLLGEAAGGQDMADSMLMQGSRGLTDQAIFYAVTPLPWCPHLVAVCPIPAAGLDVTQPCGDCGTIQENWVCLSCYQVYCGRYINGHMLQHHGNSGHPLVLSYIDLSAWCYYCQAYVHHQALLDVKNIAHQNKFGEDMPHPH
# [4] = test system: acetylation levels of histone H3 (HDAC1 target) in DU145 cells; assay: Western blot of histone H3 acetylation in DU145 cells; format: cell-based, human; details: 24 h, 10 µM
# Experimental: (§1) The results corroborate the inhibitory activity of 17, 23, 25 and 27 at concentrations lower than 10 µM. […] HDACs contribution to CRPC is known[20] and the possibility to arrest CRPC proliferation by acting on HDAC targets is expanding in the scientific literature[21]^,[22]. After administration of the selected compounds for 24 h at 10 µM concentration, the effect on the acetylation levels of histone H3 and α-tubulin (respectively, HDAC1 and HDAC6 targets) was investigated. […] Lastly, in the same cell line, the anti-proliferative effect was measured in dose and time dependent manner (Figure S4).
# Figure S3. Western blotting analysis of the tested and reference compounds SAHA and Tubastatin A on acetylation levels of histone H3 and α-tubulin in DU145 cells. GAPDH and H4 were used as a loading control. Densitometric values were analyzed using ImageJ Software and are reported on the top of bands as the ratio between loading control and acetylated target.
# (1 picture or pasted object on this page, not shown here) […]
# 1.4 Western blot analysis
# The prostate cancer cell line DU145 (ATCC) was grown in RPMI medium (Euroclone, Milan, Italy) with 10% fetal bovine serum (Euroclone), 2 mM L-glutamine (Euroclone), and antibiotics (100 U/mL penicillin, […] streptomycin) (Euroclone). Cells were stimulated with drugs for […]
# Total Protein Extraction and western blot
# After the induction with the test compounds at the indicated times and concentrations, DU145 cells were then harvested, washed with phosphate-buffered saline (PBS) (Euroclone), and lysed for 15 min at 4 °C in lysis extraction buffer with protease and phosphatase inhibitors (50 mM Tris -HCl pH 8.0, 150 mM NaCl, 1% NP40, 10 mM sodium fluoride, 0.1 mM sodium orthovanadate, […] phenylmethylsulfonyl fluoride 58 (PMSF), 20 g/mL aprotinin, […] leupeptin, […] antipain, 10 mM p -nitrophenyl phosphate, […] pepstatin A and 20 nM okada ic acid). Cells were vortexed then centrifuged at 13000 rpm for 30 min at 4 °C. Bradford assay (Biorad, Italy) was used to quantify protein concentration. […] The immune complexes were first detected with horseradish peroxidase-conjugated species-specific secondary antiserum (Bio-Rad Laboratories, Milan, Italy), and then by an enhanced chemiluminescence reaction (Bio-Rad Laboratories, Milan, Italy). […]
# were harvested and washed twice with cold 1× PBS and lysed in Triton extraction buffer (TEB; PBS containing 0.5% Triton X 100 (v/v), 2 mM PMSF, and 0.02% (w/v) NaN3) for 10 min on ice, with gentle stirring. […] The samples were then centrifuged at 2000 rpm for 10 min at 4 °C; the concentration of protein in the supernatant was determined […]
# using a Bradford assay (Bio-Rad, CA, USA). […] Semi-quantitative analysis was performed using ImageJ software. […]
# [5] = molecular target: T1, HDAC6; assay: HDAC6 assay with acetylated p53 peptide (residues 379–382, RHKKAc-AMC) as substrate; format: biochemical
# [6] = test system: DU145 cells; assay: Anti-proliferative assay (MTT cell viability); format: cell-based, human; details: for effect on proliferation rate of DU145 cells: 50 µM, MTT, 24, 48, 72 h
# Experimental: as §1
# Figure S4. Cell viability assay (MTT) of the tested compounds in human prostate cancer cell lines (DU145). Cells were treated with 4 increasing concentrations (1, 5, 10, and 50 µM) of tested compounds, monitored at 24, 48, and 72 hours and tested with SAHA and Tubastatin A as reference compounds. Data are expressed as mean ± SEM. […]
# 1.5 Anti-proliferative assay
# Cell viability was determined on DU145 cell line using Thiazolyl Blue Tetrazolium Bromide [3-(4,5-dimethylthiazol-2-yl)-2,5-diphenyltetrazolium bromide] (MTT; Sigma-Aldrich) assay after treatment with new compounds at indicated concentrations. A total of 2 × 10^4 cells/well were plated in a 96-well plate and treated, in duplicates, with new compounds at different concentrations for 24, 48, and 72 hours. Absorbance was read at a wavelength of 570 nm with a TECAN M-200 reader (Tecan, Männedorf, Switzerland).
SMILES,IC50 [3],IC50 [1],also measured
O=C(NO)c1ccccc1 [CHEMBL16300],,0.115 µM,
CNC(=O)c1ccc(C(=O)NO)cc1 [CHEMBL2333343],,0.028 µM,
O=C(NO)C1=CCCCC1 [CHEMBL2333344],,0.012 µM,
O=C(NO)C1CCCCC1 [CHEMBL2333345],,0.376 µM,
O=C(NO)C1=CCCC1 [CHEMBL2333346],,0.03 µM,
Cc1cccc(C(=O)NO)c1 [CHEMBL2381522],,0.65 µM,
CNc1ccc(C(=O)NO)cc1 [CHEMBL3415449],,1.77 µM,
"O=C(C#Cc1ccccc1)NO [Compound 12, N-hydroxy-3-phenyl-propiolamide]",,,stability on storage [2]: converted into 13 over time; melting point: 174 to 176 °C
Oc1cc(-c2cccc(C(F)(F)F)c2)on1 [Compound 14],> 300 µM,,
COc1ccc(-c2cc(O)no2)cc1 [Compound 16],> 300 µM,,
Oc1cc(-c2ccc(OCc3ccccc3)cc2)on1 [Compound 17],1.3 µM,,effect on acetylation levels of histone H3 [4]: no effect; concentration showing inhibitory activity on HDAC6 [5]: below 10 µM; effect on proliferation rate of DU145 cells [6]: reduced the proliferation rate
Oc1cc(-c2cccc3ccccc23)on1 [Compound 20],> 300 µM,,HDAC6 activity at the highest tested concentration [3]: more than 55%
Oc1cc(-c2cccc(Br)c2)on1 [Compound 22],73.3 µM,,
Cc1ccc(-c2cc(O)no2)s1 [Compound 24],21.9 µM,,

# More lines, main results first:
IC50 [3],SMILES,IC50 [1],also measured
98.1 µM,"O=c1cc(-c2ccccc2)o[nH]1 [Compound 13, 3-hydroxy-5-phenyl-isoxazole]",,stability on storage [2]: stable
> 300 µM,Oc1cc(-c2ccccc2Cl)on1 [Compound 15],,
16.4 µM,O=[N+]([O-])c1ccc(-c2cc(O)no2)cc1 [Compound 18],,
> 300 µM,Oc1cc(-c2ccc3ccccc3c2)on1 [Compound 19],,HDAC6 activity at the highest tested concentration [3]: more than 55%
29.6 µM,Oc1cc(-c2ccc(Br)o2)on1 [Compound 21],,
> 100 µM,Oc1cc(-c2ccco2)on1 [Compound 26],,
8.2 µM,Oc1cc(-c2ccc(OCc3ccc(Cl)c(Cl)c3)cc2)on1 [Compound 27],,"effect on acetylation levels of histone H3 [4]: no effect; concentration showing inhibitory activity on HDAC6 [5]: below 10 µM; effect on proliferation rate of DU145 cells [6]: reduced the proliferation rate; anti-proliferative activity at the lowest concentrations ([6]; DU145, late phases, lowest concentrations (tested 1, 5, 10, 50 µM)): exerted anti-proliferative activity"
82.3 µM,Oc1cc(-c2ccc(Br)cn2)on1 [Compound 28],,
> 300 µM,"O=C(O)c1cc(-c2ccccc2)on1 [Compound 29, 5-phenylisoxazole-3-carboxylic acid]",,"HDAC6 activity at the highest tested concentration [3]: more than 55%; HDAC6 inhibition (in words) ([3]; in vitro assays, Table 1): inactive"
